# Laboratory results reported in patent US9504671B2, “Pharmaceutical compositions of spiro-oxindole compound for topical administration and their use as therapeutic agents” (Xenon Pharmaceuticals Inc., priority 2010, dated 2016).
# Tests used:
# [1] = system: STZ-induced neuropathic pain model; test: STZ model of diabetic neuropathy, von Frey; format: in vivo, male Sprague-Dawley rats; settings: 50 mg on left foot, 30 minutes post-dosing
# From the text: This study evaluates the efficacy of a pharmaceutical composition of the invention in the STZ-induced neuropathic pain model in male Sprague-Dawley rats, following acute dosing, as compared with a 5% (w/v) topical Lidocaine (Xylocaine®) and a 1.16% (w/v) topical Diclofenac (Voltaren®). A rodent model of painful peripheral diabetic neuropathy (PDN) that mimics human condition was created by inducing a diabetic state in the rat through the ablation of the insulin producing pancreatic beta cells. A single streptozotocin (STZ) injection destroys beta cells in rats and produces a diabetic state that over time progresses to painful Peripheral Diabetic Neuropathy (PDN).
# Streptozotocin (STZ) was dissolved in citrate buffer (20 mM, pH 4.5) and administered at a dose of 60 mg/Kg, intraperitoneal, to induce pancreatic beta-cell death. Blood glucose level was measured once a week following injection, using the AccuSoft Blood Glucose Monitoring System. […] Hyperalgesia and allodynia, which are signs of diabetic neuropathic pain, were monitored using the von Frey test as described below. Von Frey measurements were recorded from both left and right paws. Only those with significant hyperalgesia as determined by reduced threshold, measured in grams, of paw withdrawal to the von Frey filament were enrolled in the study. […] During this time their health status was closely monitored.
# The animals were randomly divided into 4 test groups (n=7 animals/group) including a vehicle control, a 5% (w/v) Lidocaine (Xylocaine®), a 1.16% (w/v) Diclofenac (Voltaren®), and a pharmaceutical composition with 4% (w/w) COMPOUND A. After baseline measurement, 50 mg of the test composition was applied on the entire left foot. […] The paw withdrawal thresholds of animals from mechanical tactile stimuli were measured using the Electrovonfrey anesthesiometer (Model 2290, IITC Life Science, Woodland Hills, Calif.). […] The force (g) required to elicit a crisp withdrawal response was recorded before dosing as a baseline measurement, and at 30 minutes post-dosing. […]
# [2] = system: CCI-induced neuropathic pain model; test: time course of efficacy in neuropathic pain model, Chronic Constriction Injury, von Frey; format: in vivo, Sprague-Dawley rats
# Protocol: Neuropathic pain is characterized by spontaneous pain and stimulus-evoked allodynia and hyperalgesia. Pharmaceutical compositions of the invention were evaluated in Chronic Constriction Injury model using Sprague-Dawley rats as described below.
# An approximately 3 cm incision was made through the skin and the fascia at the mid thigh level of a rat's left hind leg using a no. 10 scalpel blade. The left sciatic nerve was exposed via blunt dissection through the biceps femoris with care to minimize haemorrhagia. Four loose ligatures were tied along the sciatic nerve using four chromic gut sutures at intervals of 1 mm to 2 mm apart. The tension of the loose ligatures was tight enough to induce slight constriction of the sciatic nerve when viewed under a dissection microscope at a magnification of 4 fold. As sham controls, the right sciatic nerve was exposed and manipulated in the same manner as described above, except sutures were not tied onto the nerve. Antibacterial ointment was applied directly into the wound, and the muscle was closed using sterilized sutures. Betadine® was applied onto the muscle and its surroundings, followed by skin closure with surgical clips.
# A painful neuropathy was allowed to develop for at least 14 days in the ipsilateral leg as determined by lower paw withdrawal thresholds to a mechanical stimulus. Only those with significant hyperalgesia, as determined by reduced threshold of paw withdrawal to the von Frey filament, measured in grams, were enrolled in the study.
# The response thresholds of animals to tactile stimuli were measured using the Model 2290 Electrovonfrey anesthesiometer (IITC Life Science, Woodland Hills, Calif.). Animals were placed in an elevated Plexiglass enclosure set on a mire mesh surface. After 15 minutes of accommodation, a von Frey hair was applied perpendicularly to the plantar surface of the ipsilateral hind paws of the animals with sufficient force, measured in grams, to elicit a crisp response of the paw. The response indicated a withdrawal from the painful stimulus and constituted the efficacy endpoint. The force (in grams) required to elicit a crisp withdrawal response was recorded before dosing as a baseline measurement, and at multiple time points post-dosing.
# Three days prior to baseline measurement, animals were anaesthetized under isoflurane and the whole of the ipsilateral hind legs, including the upper sciatic notch thigh area, ankle and foot, was shaved. The animals were then randomly assigned to one of 4 different test groups including a vehicle control group, a 5% (w/v) Lidocaine (Xylocaine®), and 2 pharmaceutical compositions of the invention comprising COMPOUND A at 4% (w/w) containing either 5% or 10% Transcutol® P. After baseline measurement, 100 mg of the test composition was applied on the entire shaved area. The animals were then placed in plastic tubes for at least 15 minutes, to prevent early removal/ingestion of drug. Subsequently, animals were placed in the Plexiglas enclosure 15 minutes before von Frey measurement at the respective time points. Von Frey withdrawal thresholds were measured as the mean of several independent determinations made within 1-2 minutes of each other on the affected paw of each animal at 0.5, 1 and 2 hours post dosing.
SMILES,"paw withdrawal threshold of treated paw, CFB ([1]; 1.16% (w/v) topical)","paw withdrawal threshold, percent mean change from baseline (CFB) ([2]; 5% (w/v) topical, 100 mg applied, 0.5 hours post-dosing)","paw withdrawal threshold, CFB ([2]; 5% (w/v) topical, time points later than 0.5 hours post-dosing, p>0.05)",duration of analgesic effects post-dosing ([2]; 5% topical),"paw withdrawal threshold of treated paw, percent mean change from baseline (CFB) ([1]; 5% (w/v) topical) [%]"
O=C(O)Cc1ccccc1Nc1c(Cl)cccc1Cl [Diclofenac],No significant CFB,,,,
"CCN(CC)CC(=O)Nc1c(C)cccc1C [Lidocaine, reference compound]",,+23.1%,No significant changes,up to 0.5 hours,25.9
